Measurements: patent US20240415825A1, “COMPOUNDS FOR THE TREATMENT OF MALARIA” (FUNDACIÓ INSTITUT DE BIOENGINYERIA DE CATALUNYA, priority 2021, published 2024)

What was measured:
P. falciparum cultures = assay: ThT analysis of protein aggregation in live P. falciparum cultures; type: cell-based, Plasmodium falciparum; details: 90 min with 90 nM, equal protein content
Description: After 90 min, 4 h and 30 h, a Percoll purification was done in order to isolate parasitized cells from uninfected RBCs. After Percoll purification, the pellets of late stage parasites and a control non-infected RBC suspension containing the same proportion of cells than the purified cultures were resuspended in 50 μl of lysis buffer (4.5 mg/ml NaCl in water supplemented with EDTA-free protease inhibitor cocktail, PIC, Hoffman-La Roche, Basel, Switzerland; 1 PIC tablet/10 ml water) and incubated overnight, at 4° C. under stirring, with the objective of releasing their inner content. After this time, lysed samples were spun down and the protein content in the supernatant was quantified with the bicinchoninic acid assay (Thermo Fisher Scientific), following the manufacturer's instructions. 30 μg of protein from each supernatant were further diluted with PBS to a final volume of 70 μl and plated on a 96-well black plate in triplicates. ThT fluorescence was measured as described above.

[1] = Cytotoxicity (CC50) and in vitro therapeutic index; type: cell-based, human; details: human umbilical vein endothelial cells (HUVEC); human umbilical vein endothelial cell cultures
[2] = test system: human umbilical vein endothelial cell cultures; assay: Cytotoxicity (CC50) and in vitro therapeutic index; type: cell-based
P. falciparum 3D7 strain = assay: Dot blot / Western blot of treated P. falciparum cultures (ubiquitinated proteins, amyloid fibrils); type: cell-based, Plasmodium falciparum
Description: Cultures of the P. falciparum 3D7 strain were sorbitol synchronized in ring stages, and after 24 h were treated for 90 min with AID-X-2020 concentrations ranging from 33 nM to 33 μM. After that time, cultures were spun down and pellets were washed once with ice-cold PBS supplemented with EDTA-free protease inhibitor cocktail (PIC, Roche; 1 PIC tablet/10 mL PBS). For anti-ubiquitin Western blots, PBS was also supplemented with 20 mM N-ethylmaleimide. […] Protein extracts were quantified with the bicinchoninic acid assay (ThermoFisher Scientific), following the manufacturer's instructions. […]
For Western blots, 15 μg of saponin-extracted proteins were incubated for 5 min at 95° C. diluted in Laemmli solution (0.14 M SDS, 0.125 M tris-HCl, pH 6.8, 20% glycerol, 10% 2-mercaptoethanol, 3 mM bromophenol blue) and resolved by SDS-PAGE in 12% bis-tris acrylamide (Bio-Rad) gels run at 80 V until samples entered the resolving gel and at 120 V afterwards. […] After probing with secondary antibodies, for both dot blot and Western blot membranes, four washes with TBS-Tween and one last wash with TBS were done and peroxidase substrate (ECL Prime Western Blotting Detection Reagent, Amersham Life Science, Inc.) was poured on the membrane and chemiluminescent signal was measured in a LAS 4000 reader (ImageQuant) at different exposure times.

preformed Aβ40 fibrils = target: T1, preformed Aβ40 fibrils (Homo sapiens, UniProt P05067); assay: Disaggregation of preformed Aβ40 fibrils; type: biochemical; details: 24 h after fibril formation, ThT and TEM
T1 construct: Amyloid-β peptide fragment 1-40 (Aβ40); purchased GenScript
T1 sequence (P05067 672-711 limits assumed, species assumed): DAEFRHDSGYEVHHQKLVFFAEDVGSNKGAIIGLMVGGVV
Description: To test the effect of AID-X-2020 on already formed amyloid fibrils, Aβ40 DMSO solutions were diluted to 25 μM in PBS and incubated as above in order to allow fibril formation. Then, AID-X-2020 was added at different concentrations (0.1 μM AID-X-2020, 1 μM AID-X-2020 and 10 μM AID-X2020) and the mixture was incubated in the same conditions for another 24 h. The final samples always contained less than 5% DMSO to avoid interference of this solvent on Aβ40 amyloid fibril formation. Finally, ThT treatment and TEM analysis was performed as described in section 3.1 of EXAMPLE 3. The analysis of aggregation inhibition and disaggregation performed with aggregative peptides present in P. falciparum proteins were conducted in the same way.

CCN(CC)c1ccc(/C=C/c2cc[n+](CCCCCCCCCC[n+]3ccc(/C=C/c4ccc(N(CC)CC)cc4)c(C)c3)cc2C)cc1 [AID-X-2020, 1,1′-(decane-1,10-diyl)bis{4-[(E)-4-(diethylamino)styryl]-3-methylpyridin-1-ium} dibromide]
ThT fluorescence of culture extracts (P. falciparum cultures): reduced emission spectrum
CC50 [1]: 3.4 µM
Therapeutic index in vitro ([2]; 50% cytotoxic concentration (CC50)/IC50 in 3D7 strain): 23.3
therapeutic index (CC50/IC50) ([2]; HUVEC CC50, text value): 37.8
effect on ubiquitinated proteins (P. falciparum 3D7 strain; 90 nM treatment of P. falciparum cultures, along time): reduction in ubiquitinated proteins
concentration inhibiting amyloid fibril formation (P. falciparum 3D7 strain; 90 min exposure, dot blot): > 3 µM
concentration disassembling preformed Aβ40 fibrils (preformed Aβ40 fibrils): > 90 nM
